Measurements as given in patent US20230339866A1, “Quinazoline compounds and the use thereof in the treatment of cancer” (TROBIO THERAPEUTICS PTY LTD, priority 2020, published 2023).

Tests used:
[1] = test system: SK-N-SH neuroblastoma cells; test: Anti-proliferative activity (MTS assay) against SK-N-SH neuroblastoma cells; format: cell-based; details: Homo sapiens, SK-N-SH, 72 h
Description: The ability of compounds of the disclosure to inhibit the proliferation of SK-N-SH neuroblastoma cells was also assessed. […] Cell viability was normalised to control (vehicle alone) and dose response curves and IC50 values (Table 4) were determined using Graph Pad Prism 6.

A549 (NSCLC) = test: Anti-proliferative activity (Cell-Titre luminescence) against A549 non-small cell lung cancer cells; format: cell-based; details: Homo sapiens, A549, 72 h, 72 h exposure, Cell-Titre luminescent reagent
Method in brief: (§1)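 EC50 derived by nonlinear variable-slope sigmoidal fit of luminescent Cell-Titre viability, normalised to vehicle control. Compound (0.1–30 μM, six concentrations) applied for 72 h after 24 h attachment at 37 °C, 5% CO2.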

Tpm3.1 = Tpm3.1 (Homo sapiens, UniProt P06753); test: Circular dichroism spectroscopy, thermal unfolding of Tpm3.1 peptides; format: binding; design: N-terminus (residues 2-80 with an initial Ala-Gly dipeptide to mimic N-terminal acetylation) of Tpm3.1; Peptides corresponding to the C-terminus (residues 139-248) and N-terminus; made in house; details: test compound 100 μM, peptide 20 μM, CD at 222 nm
Description: The interactions of compounds 11, 13, 32 and 92 with the N-terminus and overlap region of Tpm3.1 were measured using circular dichroism (CD) spectroscopy (see FIG. 1). Peptides corresponding to the C-terminus (residues 139-248) and N-terminus (residues 2-80 with an initial Ala-Gly dipeptide to mimic N-terminal acetylation) of Tpm3.1 were prepared as described in the literature (Janco et al., 2019). CD spectra and thermal unfolding isotherms of N_82AA_Tpm3.1 and C_109AA_Tpm3.1 peptides were acquired on a Chirascan Plus CD Spectrometer (Applied Photophysics Limited, U.K.) in stoppered 0.5 mm cuvettes (48/Q/0.5; Starna Scientific Ltd.). Proteins were dialyzed O/N against 10 mM NaH2 PO4, 150 mM NaCl, 75 μM TCEP (added prior to experiment), 1% (v/v) acetonitrile pH 7 buffer. Final concentration of peptides was 20 μM. Tpm samples containing the test compound (100 μM) were incubated at 37° C. O/N. CD spectra were measured from 195 to 260 nm with a 1 nm step size and a […], taking 3 to 4 averages at 37° C. The thermal unfolding was carried at 222 nm over the range 20-85° C. at the rate of 1° C./min. Sample was cooled down to the initial temperature and heating procedure was repeated 2 to 3 times. To obtain information of the major thermal transitions from individual isotherms, data were further smoothed by the Savitzky-Golay method (5-point window), differentiated and then fitted to multiple Gaussian peaks as described previously (Janco et al., 2012) (FIG. 2).

A2780 (ovarian) = test: Anti-proliferative activity (Cell-Titre luminescence) against A2780 ovarian cancer cells; format: cell-based; details: Homo sapiens, A2780, 72 h, 72 h exposure, Cell-Titre luminescent reagent
Method in brief: as §1

[2] = test system: A2780 ovarian cancer cells; details: read-out: IC50 values used for the dose matrix (cytotoxic agents); A2780, single agent, MTS 72 hours
Description: The A2780 cell line was maintained as a monolayer in Dulbeccos Modified Eagles medium (DMEM) supplemented with 10% foetal bovine serum (FBS) and grown at 37° C. in a humidified atmosphere with 5% CO2. […] Each screening plate contained one 6×6 dose matrix for two drugs using two-fold dilution steps. […] Viability was measured after 72 hours using a standard MTS assay.
Synergistic drug interactions were determined for each pairwise drug combination by applying the Bliss-independence model that assumes independence of drug mechanisms.
The Bliss additivism model was used to calculate a predicted combined response C to two single agents with responses A and B (using GI values), as follows:
The final score for any combination was reported as the difference between the value predicted by the additive model and the experimentally observed value, normalised to 100. Using GI values the maximum possible synergy score is 100, with 0 indicating no synergy and negative indicating possible antagonism. Scores were also reported as a “Max synergy” score, which is the highest individual synergy score for each combination matrix, and a “Total synergy” score, which was obtained by summation of each individual synergy score for the matrix.

Question: What does the source list for `CN1CCN(CCNc2nc(-c3cc[nH]c3)nc3ccccc23)CC1` [Compound 13, N-(2-(4-methylpiperazin-1-yl)ethyl)-2-(1H-pyrrol-3-yl)quinazolin-4-amine]?
Answer: IC50 [1]: 1.72 µM; IC50 (A549 (NSCLC)): 6.5 µM; Effect on melting profile of the Tpm3.1 N-terminal peptide construct (Tpm3.1): alter the melting profile; Effect on stability of the Tpm3.1 N-terminal peptide (Tpm3.1): stabilizing effect; IC50 (A2780 (ovarian)): 5.65 µM

Question: With `OCCNc1nc(NCc2ccc(C(F)(F)F)cc2)nc2ccccc12` [Compound 32, 2-((2-((4-(trifluoromethyl)benzyl)amino)quinazolin-4-yl)amino)ethan-1-ol] as the compound, how does the IC50 [1] read?
Answer: 4.09 µM

Question: What about the IC50 (A549 (NSCLC)) of the same compound?
Answer: 4.63 µM

Question: And the “Effect on melting profile of the Tpm3.1 N-terminal peptide construct” value (Tpm3.1)?
Answer: alter the melting profile

Question: What about the “Effect on stability (melting profile) of the overlap complex formed by the N- and C-terminal peptides” value (Tpm3.1) of the same compound?
Answer: increasing

Question: And the “Effect on stability of the Tpm3.1 N-terminal peptide” value (Tpm3.1)?
Answer: decrease the stability

Question: And the IC50 (A2780 (ovarian))?
Answer: 1.28 µM

Question: `CCC1=C[C@@H]2CN(C1)Cc1c([nH]c3ccccc13)[C@@](C(=O)OC)(c1cc3c(cc1OC)N(C)[C@H]1[C@@](O)(C(=O)OC)[C@H](OC(C)=O)[C@]4(CC)C=CCN5CC[C@]31[C@@H]54)C2` [vinorelbine, reference compound] was tested. Which IC50 [2] did it give?
Answer: 4 nM

Question: How did the IC50 [1] turn out when `CN(C)CCNc1nc(-c2cc[nH]c2)nc2ccccc12` [Compound 98, N^1-(2-(1H-pyrrol-3-yl)quinazolin-4-yl)-N^2,N^2-dimethylethane-1,2-diamine] was run?
Answer: 3.93 µM

Question: What about the IC50 (A549 (NSCLC)) of the same compound?
Answer: 5.21 µM

Question: What about the IC50 (A2780 (ovarian)) of the same compound?
Answer: 1.03 µM

Question: How did the IC50 [1] turn out when `CCc1ccc(CCNc2nc(NCCO)c3ccccc3n2)cc1` [Compound 89, 2-((2-((4-ethylphenethyl)amino)quinazolin-4-yl)amino)ethan-1-ol] was run?
Answer: 3.48 µM

Question: What about the IC50 (A549 (NSCLC)) of the same compound?
Answer: 6.1 µM

Question: What about the IC50 (A2780 (ovarian)) of the same compound?
Answer: 2.73 µM

Question: With `CCc1ccc(Nc2nc(NCCc3c[nH]cn3)c3ccccc3n2)cc1` [Compound 81, N^4-(2-(1H-imidazol-4-yl)ethyl)-N^2-(4-ethylphenyl)quinazoline-2,4-diamine] as the compound, how does the IC50 [1] read?
Answer: 3.82 µM

Question: What about the IC50 (A549 (NSCLC)) of the same compound?
Answer: 3.1 µM

Question: What about the IC50 (A2780 (ovarian)) of the same compound?
Answer: 1.2 µM

Question: What does the source list for `FC(F)(F)c1cccc(CCNc2nc(NCCN3CCNCC3)c3ccccc3n2)c1` [Compound 112, N^4-(2-(piperazin-1-yl)ethyl)-N^2-(3-(trifluoromethyl)phenethyl)quinazoline-2,4-diamine]?
Answer: IC50 [1]: 0.46 µM; IC50 (A549 (NSCLC)): 0.938 µM; IC50 (A2780 (ovarian)): 0.767 µM

Question: `Fc1ccc(CCNc2nc(NCCc3c[nH]cn3)c3ccccc3n2)cc1` [Compound 88, N^4-(2-(1H-imidazol-4-yl)ethyl)-N^2-(4-fluorophenethyl)quinazoline-2,4-diamine] was tested. Which IC50 [1] did it give?
Answer: 2.2 µM

Question: What about the IC50 (A549 (NSCLC)) of the same compound?
Answer: 3.42 µM

Question: What about the IC50 (A2780 (ovarian)) of the same compound?
Answer: 1.74 µM

Question: With `CN1CCN(CCNc2nc(Nc3cccc(C(F)(F)F)c3)nc3ccccc23)CC1` [Compound 41, N^4-(2-(4-methylpiperazin-1-yl)ethyl)-N^2-(3-(trifluoromethyl)phenyl)quinazoline-2,4-diamine] as the compound, how does the IC50 [1] read?
Answer: 2.22 µM

Question: And the IC50 (A549 (NSCLC))?
Answer: 3.06 µM

Question: And the IC50 (A2780 (ovarian))?
Answer: 0.855 µM

Question: Which results are given for `CN1CCN(CCNc2nc(-c3ccsc3)nc3ccccc23)CC1` [Compound 11, N-(2-(4-methylpiperazin-1-yl)ethyl)-2-(thiophen-3-yl)quinazolin-4-amine]?
Answer: IC50 [1]: 9.11 µM; IC50 (A549 (NSCLC)): 10.3 µM; Effect on melting profile of the Tpm3.1 N-terminal peptide construct (Tpm3.1): alter the melting profile; Effect on stability (melting profile) of the overlap complex formed by the N- and C-terminal peptides (Tpm3.1): decreasing; Effect on stability of the Tpm3.1 N-terminal peptide (Tpm3.1): decrease the stability; IC50 (A2780 (ovarian)): 6.43 µM

Question: Which results are given for `CC(C)C(CNc1nc(-c2cc[nH]c2)nc2ccccc12)N1CCN(C)CC1` (stereo not drawn) [Compound 5, N-(3-methyl-2-(4-methylpiperazin-1-yl)butyl)-2-(1H-pyrrol-3-yl)quinazolin-4-amine]?
Answer: IC50 [1]: 1.87 µM; IC50 (A549 (NSCLC)): 2.74 µM; IC50 (A2780 (ovarian)): 0.901 µM

Question: For `CCc1ccc(Nc2nc(NCCCN(C)C)c3ccccc3n2)cc1` [Compound 71, N^4-(3-(dimethylamino)propyl)-N^2-(4-ethylphenyl)quinazoline-2,4-diamine], which IC50 [1] is on record?
Answer: 2.07 µM

Question: What about the IC50 (A549 (NSCLC)) of the same compound?
Answer: 7.14 µM

Question: What about the IC50 (A2780 (ovarian)) of the same compound?
Answer: 2.88 µM
